Patent US9556164B2, “Salts of Dasatinib in crystalline form” (BASF SE, priority 2013, dated 2017)

Details: DVS at 25° C., humidity program 50% r.h. to 95% r.h. and back to 50% r.h.
Experimental: Dynamic vapor sorption: DVS is performed at 25° C. with an SPS11-100n “Sorptions Prüfsystem” of Projekt Messtechnik, D-89077 Ulm (Germany). About 25 mg of sample is put into an aluminum sample pan. Humidity program: 50% relative humidity (r.h.) for 2 hours, 50% r.h. to 95% r.h. (humidity change rate 5% per hour), 95% r.h. for 5 hours, 95% r.h. to 50% r.h. (humidity change rate 5% per hour), 50% r.h. for 2 hours.

## Cc1nc(Nc2ncc(C(=O)Nc3c(C)cccc3Cl)s2)cc(N2CCN(CCO)CC2)n1.O=C1NS(=O)(=O)c2ccccc21 [Example 5, Dasatinib saccharinate (hydrate)]
  hygroscopicity by DVS: not hygroscopic
